Data set [1] is described as follows: In vitro diffusion of [^14C]-Terbinafine at the nail bed of drilled human nails, quantitative whole body autoradiography (QWBA). Type of data set: in vitro ADME. The conditions noted are these: for diffusion of radioactivity between the holes: 2 mm and 4 mm spaced holes. From the text:
Four frozen human cadaver fingertips with nails were used. Each fingernail contained two series of three holes, one set at 2 mm apart and the other set at 4 mm apart.
The samples were placed in a Transwell plate containing 3 milliLiters (mL) of culture medium. Three of the nails received an application of the radiolabeled test item during one hour; one received an application of a non-radiolabeled test item. A finite dose (5 microLiters (μL)) of formulation was applied on the nail surface. Incubation was conducted for 1 hour at 37° C., 5% CO2 and saturated hygrometry. At the end of the incubation, excess of formulation was removed from the nail surface.
Each sample was frozen onto a support using adapted QWBA procedures. Sections were then taken through each fingernail onto tape and were analyzed using QWBA methods to determine the diffusion of radioactivity at the nail bed level from each site of administration. A 3-dimensional graph of the concentration of radioactivity was then created to visualize the diffusion through the nail matrix.
In vitro diffusion of [^14C]-Terbinafine on nail beds was studied on drilled human hand nails. Four samples were used through the study and were drilled as follows: • On each sample: 3 holes of 0.6 mm diameter, with 2 mm distance between each hole and 3 holes of 0.6 mm diameter, with 4 mm distance between each hole • 3 samples were treated with 10% [^14C]-Terbinafine in amphoteric solution One sample was treated with placebo • Treatment duration: 1 hour • 5 μL of test item were applied on each nail • Incubation at 37° C., 5% CO2 and saturated hygrometry during 1 hour • At the end of the incubation period, the excess of test item was removed and the samples were stored at −80° C. before processing for autoradiography analysis.
(§1) Three of the nails received an application of the radiolabeled test item, whilst the other nail received an application of the unlabelled test item as follows: • Samples A, B and C (Treated samples): 5 μL of the formulation containing 10% [^14C]-Terbinafine were applied on the surface of each of the nail samples. • Sample D (Control sample): 5 μL of the formulation containing 10% Terbinafine were applied on the surface of the nail sample.
(§2) The culture plate containing the nail samples was placed in a culture incubator kept at 37° C., 5% CO2 and saturated hygrometry. The duration of the nail treatment was 1 hour.
At the end of the treatment period, the excess of the formulation remaining on the nail was wiped off using a dried cotton swab and five successive cotton swabs wetted with absolute ethanol. These cotton swabs were discarded. The nail samples were then stored at −80° C., and shipped frozen for analysis by autoradiography.
The samples (four human fingernails) were received deeply frozen on solid CO2 and immediately transferred to storage in a freezer set to maintain a temperature of −80° C. A supporting block was prepared to support each sample during sectioning. Specifically, a mould was filled with 2% carboxymethylcellulose solution and frozen in a mixture of dry ice and hexane. The frozen finger was fixed in a horizontal position on a cork disc using a cryo-matrix and the disc was then fixed to the carboxymethylcellulose block with a further cryo-matrix. The finger was embedded so that the nail was facing to the side and to ensure that each series of holes was as horizontal as possible (dependant on the alignment of the drilled holes). A further cryomatrix was added around each finger to provide additional support during sectioning. The frozen blocks were stored in a freezer set to maintain a temperature of −20° C. prior to and following sectioning.
Each nail was sectioned through until immediately adjacent to the uppermost hole in the series. Horizontal sections (approximately 30 μm thick) were then taken through each fingernail onto adhesive tape. […]

Data set [2] is described as follows: Radioactivity level in the culture medium (receiver chamber) at the end of the treatment period, liquid scintillation counting. Type of data set: in vitro ADME, human. The conditions noted are these: for radioactivity in culture medium, mean / radioactivity in culture medium, whole receiver chamber: 1 hour treatment; for radioactivity in culture medium, single counts: 5 μL of 10% formulation on drilled nail, 1 hour, 37° C., triplicate counts, hydrochloride; for Applied dose (%) found in culture medium: applied dose 1106175 dpm. The method, then:
Each nail sample was then placed on a cell culture insert. Each insert was introduced into a receiver chamber of a 6-well culture plate. The receiver chamber was filled with 3 mL HHBSS containing antibiotics (2% penicilline-streptomycine).
as §1, §2
In order to check the specificity of the incubation system (no radioactive contamination due to leakage of applied formulation through the insert), the radioactivity level was measured in the culture medium at the end of the treatment period. Each receiver chamber medium was controlled in triplicate by liquid scintillation counting as follows: 100 μL of culture medium was directly counted by liquid scintillation counting using 10 mL of HIONIC FLUOR available from Perkin Elmer. The results presented in the table below show a very low radioactivity level in culture medium of sample A and sample C. The radioactivity level only represented 1.6% of the applied dose in sample A and 0.1% of the applied dose in sample C. These radioactivity levels were considered negligible and could not compromise the results of the study.

“And” between values parts separate entries of the source, which are not always exact repeats. Equal values may be shown once. “Also recorded” adds a separate entry of the source. Where a name gives a salt, the structure may show the parent alone.

Turning to `CN(C/C=C/C#CC(C)(C)C)Cc1cccc2ccccc12` [Terbinafine], in data set [1] (Nails A to C, 2 mm and 4 mm hole sets), the “localization of diffusion (plots of FIGS. 4, 6, 8, 10, 12, 14)” value is “particularly localized to the holes in the nail”.

Consider `CN(C/C=C/C#CC(C)(C)C)Cc1cccc2ccccc12` [[^14C]-Terbinafine, Terbinafine hydrochloride], for which the “diffusion of radioactivity between the holes” value is on record as “little diffusion of radioactivity between the holes” in data set [1] (Nail A, 1 hour); “little diffusion of radioactivity between the holes” in data set [1] (Nail B, 1 hour); “little diffusion of radioactivity between the holes” in data set [1] (Nail C, 1 hour, holes did not receive a full application). The “concentrations of radioactivity between the holes” value was “decrease to background levels between the holes” in data set [1] (Nail A, 4 mm spacing, 1 hour); “decrease to background levels between the holes” in data set [1] (Nail B, 4 mm spacing, 1 hour); “decrease to background levels between the holes” in data set [1] (Nail C, 4 mm spacing, 1 hour); “decreased to background radiation levels between the holes; also recorded: decrease to background levels between the holes” in data set [1] (overall conclusion, 4 mm spaced holes, hydrochloride). Besides, the “diffusion at the nail bed level around the holes” value in data set [1] (overall conclusion) is listed as “diffusion of the radiolabeled drug at the nail bed level around the holes”. Also, the “radioactive signal on the surface of nail plates” value in data set [1] (overall conclusion) was “marked radioactive signal”. Besides, the “diffusion of radioactivity between the holes, 4 mm versus 2 mm spacing” value in data set [1] (overall conclusion, Nails A to C, hydrochloride) was “little diffusion of radioactivity between the 4 mm spaced holes compared to the 2 mm spaced holes; also recorded: little diffusion of radioactivity between the 4 mm spacing holes compared to the 2 mm spacing holes”. Moreover, the “radioactivity in culture medium, mean” value in data set [2] (Mean sample A) is 575.7 dpm/100 μL; in data set [2] (Mean sample B, LOQ 54 dpm), 46.3 dpm/100 μL; in data set [2] (Mean sample C, LOQ 54 dpm), 54.7 dpm/100 μL. The “radioactivity in culture medium, whole receiver chamber” value in data set [2] (Mean sample A) is reported as 17270 dpm/3 mL; in data set [2] (Mean sample B), “BLQ”; in data set [2] (Mean sample C), 1640 dpm/3 mL. In addition, the “radioactivity in culture medium, single counts” value in data set [2] (Sample A) is 494 dpm/100 μL and 621 dpm/100 μL and 612 dpm/100 μL; in data set [2] (Sample B) it was 48 dpm/100 μL and 49 dpm/100 μL and 42 dpm/100 μL; in data set [2] (Sample C), 49 dpm/100 μL and 52 dpm/100 μL and 63 dpm/100 μL. Moreover, the “Applied dose (%) found in culture medium” value in data set [2] (Sample A) was 1.6%; in data set [2] (Sample B), 0%; in data set [2] (Sample C), 0.1%.

The values above are taken from patent publication US20150119825A1, “OPTIMIZING UNGUAL TREATMENT BY QUANTITATIVE AUTORADIOGRAPHY” (GALDERMA RESEARCH & DEVELOPMENT, priority 2012, published 2015).
